Measured values published in patent publication US20220023274A1, “USE OF A BERBERIS AND RESVERATROL MIXTURE TO CONTROL DYSLIPIDEMIA” (priority 2018, published 2022).

Columns and labels:
plasma LDL concentration = test: Case reports of subjects (n=4): plasma LDL concentration, reduction compared to nontreated condition (FIG. 2); assay type: in vivo, human; conditions: n=4 subjects; berberine 500 mg alone or with 48 mg resveratrol (pure, or as 160 mg REVIFAST)
Excerpt: Information were also collected from case reports of a number of subjects supplemented in their diet substantially as above.
As it can be seen, when the subjects are supplemented with berberine the levels of LDL cholesterol were reduced. […] It is therefore believed that it is the way in which resveratrol is absorbed that influences the synergistic action of resveratrol to reduce LDL cholesterol by berberine.

LDL cholesterol = test: Case report: LDL cholesterol level under dietary supplementation (Example 9); assay type: in vivo, human; conditions: The patient, initial LDL cholesterol 3.91 mM; berberine 500 mg for 1 month; Revifast dosage as in examples 2-5
Procedure: […] The patient is […] and is classified borderline for the lipid profile with an LDL cholesterol level of 3.91 mM. In their dietary supplement scheme, they took a berberine 500 mg supplement separately for 1 month, taking lipoprotein levels to 3.4 mM. […] The quantities assumed by […] FG are such that the dosage used is that shown in examples 2-5.

[1] = system: Low-Density lipoprotein Receptor (LDL-R); test: Transcriptional expression of the LDL receptor in hepatocytes in vitro (Example 1, FIG. 1); assay type: cell-based; conditions: 24 hours, Berberine 5 μg/mL, Resveratrol 3 μM, each applied alone, vs CTRL (no treatments)
Excerpt: It could be said that the concentration tested is bio-equivalent to that of Berberine with a concentration of 50% higher than that administered according to the work of Kong et to 2004. (Kong W, Wei J, Abidi P, Lin M, Inaba S, Li C, Wang Y, Wang Z, Si S, Pan H, 10 Wang S, Wu J, Wang Y, Li Z, Liu J, Jiang J D. Berberine is a novel cholesterol-lowering drug working through a unique mechanism distinct from statins. Nat Med. 2004 December; 10(12):1344-51)).
Resveratrol being without effect alone is therefore a synergy, never observed before. The innovation is therefore in having observed a synergy between resveratrol and berberine with resveratrol which enhances the effects of berberine in the expression of LDL-R. The results are summarized in FIG. 1.

| Compound | effect on plasma LDL cholesterol (in words) (plasma LDL concentration) | LDL cholesterol level (plasma concentration) (LDL cholesterol) [mM] | transcription of the LDL receptor (effect in words) [1] |
| --- | --- | --- | --- |
| COc1ccc2cc3[n+](cc2c1OC)CCc1cc2c(cc1-3)OCO2 [Berberine] | reduced | 3.4 | tends to increase |
| Oc1ccc(C=Cc2cc(O)cc(O)c2)cc1 [resveratrol, 3,5,4′-trihydroxystilbene] |  |  | no apparent effect |
